Measured values published in patent US6576671B1, “Aminotetralin derivatives for the therapy of cardiovascular diseases” (Chiese Farmaceutici S.p.A., priority 1999, dated 2003).

Experiments:
[1] = biological target: α2 adrenergic receptors; test: α2 adrenergic receptor binding, [3H]-rauwolscine, rat cerebral cortex; details: rat cerebral cortex; read-out: IC50, 50% inhibition of [3H]-rauwolscine specific binding
Procedure: The affinity of CHF 1024 and CHF 1035 for α2, adrenergic receptors was tested on human platelets and on rat cerebral cortex.
(§1) The antagonist [^3H]-rauwolscine was used as marker of the receptor, being its binding reversible, saturable and specific.
Values are expressed as IC50=molar concentration of drug required for 50% inhibition of [^3H]-rauwolscine specific binding.

[2] = biological target: peripheral DA2 dopaminergic receptors (Oryctolagus cuniculus, UniProt G1T1Q0); test: Peripheral DA2 dopaminergic activity in electrically stimulated rabbit rectococcygeus muscle
Description: The activity of CHF 1024 and CHF 1035 on peripheral DA2 dopaminergic receptors has been tested in the electrically stimulated rabbit rectococcygeus muscle.

[3] = Pharmacological and clinic pharmacological studies of diuresis; details: in vivo
[4] = biological target: α2-adrenergic receptors; test: α2-adrenergic activity in isolated neuronally-stimulated rat vas deferens
[5] = system: plasma and tissue esterases; test: Transformation into the desesterified form after administration; format: in vivo
[6] = biological target: T1, α2 adrenergic receptors (Homo sapiens, UniProt P08913); test: α2 adrenergic receptor binding, [3H]-rauwolscine, human platelets; details: human platelets; read-out: IC50, 50% inhibition of [3H]-rauwolscine specific binding
T1 construct: from tissue; host or cells: human platelets
T1 sequence (P08913 1-465): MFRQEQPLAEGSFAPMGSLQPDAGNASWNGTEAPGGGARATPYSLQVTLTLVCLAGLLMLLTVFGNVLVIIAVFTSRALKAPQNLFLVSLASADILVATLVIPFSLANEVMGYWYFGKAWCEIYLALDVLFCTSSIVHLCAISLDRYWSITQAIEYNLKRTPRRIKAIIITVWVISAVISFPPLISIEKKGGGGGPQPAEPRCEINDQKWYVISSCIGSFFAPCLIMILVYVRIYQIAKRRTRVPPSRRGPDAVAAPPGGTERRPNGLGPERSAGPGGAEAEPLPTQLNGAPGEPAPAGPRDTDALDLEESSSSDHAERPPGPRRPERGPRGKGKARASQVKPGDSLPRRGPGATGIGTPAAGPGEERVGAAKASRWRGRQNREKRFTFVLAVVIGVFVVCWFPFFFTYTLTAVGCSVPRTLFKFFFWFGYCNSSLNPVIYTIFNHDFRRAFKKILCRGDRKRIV
Description: as §1

[7] = system: anesthetized rats; test: In vivo cardiovascular effects in anesthetized rats; parameters: species or system rat
Procedure: Male albino rats (Sprague Dawley, 350-400 g) were anesthetized by sodium pentobarbital (60 mg/kg) and maintained by i.v. infusion (6 mg/h). The trachea was cannulated to facilitate spontaneous respiration and body temperature was maintained at 37 C. Homoiothermic Blanket Control System (Harvard, England).
The right femoral artery was cannulated for arterial blood pressure measurement and left jugular vein or duodenum were cannulated for drug administration. Mean arterial pressure and heart rate were continuously monitored by pressure transducer and medium gain amplifier triggered by the ECG signal, respectively. […]
CHF 1035 was administered intraduodenally (1 mg/kg).
The response to […] was determined in the absence and in the presence of the selective β2-adrenoceptor antagonist ICI 118.551 (0.2 mg/kg i.v.) and the selective DA2-dopaminergic antagonist domperidone (0 3 mg/kg i.v.) both alone and in combination. The antagonists were administered 10 min before the i.d. drug administration.

[8] = system: patients suffering from NYHA class II-III congestive heart failure; test: Add-on therapy study, 28 days, clinical condition and exercise capacity; format: in vivo, human
Procedure: The effects of CHF 1030 as added therapy have been evaluated in patients suffering from NYHA class II-III congestive heart failure due to mild hypertension, or coronary disease, or chronic cardiomyopathy who were on diuretics or diuretics and an angiotensin-converting enzyme inhibitor.
Recruited patients were randomly assigned to added double-blind treatment with placebo or with three different doses of the study drug (5 mg, 10 mg, 15 mg).
The study therapy was started by patients on day 1 and proceeded until day 28 of the study.
The following parameters have been considered to determine the clinical condition of patients:
The functional response to the treatments has been evaluated by exertional tests, the 6-minute walking test and the 130-meter walking test.
For the evaluation of clinical condition, more than 60 symptoms or signs were evaluated.
For statistical purposes scores from signs and symptoms (as applicable) were summed to form clinical compound scorings (CCSs) of pathophysiological importance in congestive heart failure.

Chain of peripheral DA2 dopaminergic receptors (G1T1Q0 1-443): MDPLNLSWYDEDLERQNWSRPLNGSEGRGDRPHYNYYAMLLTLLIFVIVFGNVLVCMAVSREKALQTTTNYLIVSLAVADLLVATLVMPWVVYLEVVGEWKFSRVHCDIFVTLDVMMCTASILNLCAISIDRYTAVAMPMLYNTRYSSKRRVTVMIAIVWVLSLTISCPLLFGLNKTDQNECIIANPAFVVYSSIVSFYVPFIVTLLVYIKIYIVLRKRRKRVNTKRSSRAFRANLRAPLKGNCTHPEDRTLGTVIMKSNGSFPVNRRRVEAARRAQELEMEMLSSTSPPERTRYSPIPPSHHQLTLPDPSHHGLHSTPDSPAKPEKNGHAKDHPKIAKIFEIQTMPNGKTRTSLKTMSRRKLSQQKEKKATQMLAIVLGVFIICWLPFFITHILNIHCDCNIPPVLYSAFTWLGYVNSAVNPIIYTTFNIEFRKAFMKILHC

- IC50 [1]: 2650 nM
- effect in presence of selective DA2-antagonist domperidone [2]: competitively antagonized
- more potent than dopamine [2]: approximately 3 times
- IC50 ([2]; read-out: IC50, 50% inhibition of the electrically induced contraction): 29.6 nM
- IC50 ([4]; isolated neuronally-stimulated rat vas deferens, read-out: IC50, 50% inhibition of the electrically induced contraction): 71.4 nM
- more potent than dopamine ([4]; rat vas deferens): ~70 times
- transformation by plasma and tissue esterases into the active desesterified form [5]: Immediately after the administration
- IC50 [6]: 27000 nM
- duration of pharmacodynamic effects versus serum levels of the drug ([8]; patients with congestive heart failure): last longer than detectable serum levels
SMILES: CNC1CCc2c(ccc(OC(=O)C(C)C)c2OC(=O)C(C)C)C1 (stereo not shown) [CHF 1035, 5,6-Diisobutyroyloxy-2-methylaminotetralin]
- diuresis [3]: increases
- natriuresis and kaliuresis [3]: without affecting
- peak hypotensive effect after pretreatment with the β2-antagonist ([7]; 1 mg/kg i.d., ICI 118.551 0.2 mg/kg i.v. 10 min before): significantly reduced
- hypotensive response after both antagonists combined ([7]; 1 mg/kg i.d., ICI 118.551 and domperidone): completely abolished
- time to complete recovery of basal value after DA2-antagonist pretreatment ([7]; 1 mg/kg i.d., domperidone i.v. 10 min before, hypotensive response significantly shortened): 60 min
- hypotensive response, peak effect, reduction from basal value ([7]; 1 mg/kg intraduodenal, 5 min after administration): about 45%
- hypotensive response, reduction from basal value ([7]; 1 mg/kg intraduodenal, 2 hours after administration): about 20%
- blood pressure ([7]; intraduodenal, 1 mg/kg): markedly reduced
- heart rate ([7]; intraduodenal, 1 mg/kg): without affecting
- functional and clinical condition of patients, compared to placebo ([8]; 5, 10, 15 mg add-on to diuretics or diuretics and ACE inhibitor, day 1 to 28): improved
